Assays:
[1] = test system: human SMN2 transgene exon 7 C840T (C6T) in SMA mESCs; assay: Adenine base editing of SMN2 C840T (C6T) after transfection of SMA mESCs; assay type: cell-based, mouse; conditions: ABE8 fusions, FIG. 4
DNA = conditions: SpCas9 mutation relative to SEQ ID NO: 5; UniProtKB Q99ZW2 entry; cited from earlier work

For “iSpyMac: iSpyMac-variant ABE8e adenine base editor; SEQ ID NO: 476”, the “editing of C840T” value [1] was “edited C840T with high efficiency”.

B1: 175-307 deletion: SpCas9 mutation relative to SEQ ID NO: 5 (protein)
chain: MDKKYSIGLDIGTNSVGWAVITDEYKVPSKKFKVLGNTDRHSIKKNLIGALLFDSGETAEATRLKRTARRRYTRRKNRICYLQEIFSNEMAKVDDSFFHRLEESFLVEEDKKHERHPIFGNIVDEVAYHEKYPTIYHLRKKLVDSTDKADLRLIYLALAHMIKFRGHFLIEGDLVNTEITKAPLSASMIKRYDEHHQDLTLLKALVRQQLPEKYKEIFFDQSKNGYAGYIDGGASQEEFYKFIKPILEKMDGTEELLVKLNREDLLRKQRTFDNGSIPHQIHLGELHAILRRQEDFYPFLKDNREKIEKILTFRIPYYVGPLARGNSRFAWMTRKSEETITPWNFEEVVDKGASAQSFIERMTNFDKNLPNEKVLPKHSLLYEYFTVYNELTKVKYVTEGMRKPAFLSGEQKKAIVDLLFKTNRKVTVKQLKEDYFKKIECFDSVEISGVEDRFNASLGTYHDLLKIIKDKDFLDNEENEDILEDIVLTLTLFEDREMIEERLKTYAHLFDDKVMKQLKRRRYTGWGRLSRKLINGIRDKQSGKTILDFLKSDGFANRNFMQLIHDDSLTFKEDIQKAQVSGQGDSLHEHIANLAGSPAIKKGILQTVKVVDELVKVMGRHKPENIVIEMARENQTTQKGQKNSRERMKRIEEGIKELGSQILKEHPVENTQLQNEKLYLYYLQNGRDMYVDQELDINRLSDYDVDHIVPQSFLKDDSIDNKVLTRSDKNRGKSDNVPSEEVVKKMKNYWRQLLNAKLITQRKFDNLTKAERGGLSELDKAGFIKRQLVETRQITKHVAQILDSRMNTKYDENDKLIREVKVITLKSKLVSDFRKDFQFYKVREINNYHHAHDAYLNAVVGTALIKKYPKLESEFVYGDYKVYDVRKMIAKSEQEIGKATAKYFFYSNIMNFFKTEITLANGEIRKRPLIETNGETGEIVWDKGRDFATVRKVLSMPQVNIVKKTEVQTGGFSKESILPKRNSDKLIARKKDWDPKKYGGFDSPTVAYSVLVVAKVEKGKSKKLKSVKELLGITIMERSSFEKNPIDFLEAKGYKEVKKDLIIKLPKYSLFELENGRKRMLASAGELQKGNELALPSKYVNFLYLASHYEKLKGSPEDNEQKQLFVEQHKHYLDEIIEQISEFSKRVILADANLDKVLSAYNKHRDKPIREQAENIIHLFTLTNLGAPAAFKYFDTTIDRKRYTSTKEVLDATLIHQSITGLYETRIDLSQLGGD
modifications: Streptococcus pyogenes
In the case of B1, the “decreased DNA cleavage” value (DNA) is given as “About 50% decreased DNA cleavage”.

— patent publication US20230108687A1, “GENE EDITING METHODS FOR TREATING SPINAL MUSCULAR ATROPHY” (The Broad Institute, Inc., priority 2020, published 2023)
